Patent US8952024B2, “Herbicidal pyrimidone derivatives” (E I du Pont de Nemours and Company, priority 2009, dated 2015)
Like-named read-outs stand apart in the source and are kept apart here.

How the values were obtained:
Assay type in all cases: in vivo
rice (Oryza sativa) = test: Test B flooded paddy test
Procedure, shortened: (§1)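 Ratings are visual, 0–100 (100 = complete control), taken versus untreated controls 13 to 15 days after treatment in the greenhouse. Compound went straight into paddy water held 3 cm above soil, applied to 2-leaf-stage plants of four species.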

[1] = tested on: barnyardgrass (Echinochloa crus-galli); test: Test B flooded paddy test
Procedure, shortened: as §1

[2] = tested on: umbrella sedge (Cyperus difformis); test: Test B flooded paddy test
Procedure, shortened: as §1

[3] = tested on: ducksalad (Heteranthera limosa); test: Test B flooded paddy test
Procedure, shortened: as §1

[4] = tested on: Russian thistle (Salsola kali); test: Test B pre-/postemergence plant response; conditions: Preemergence
Procedure, shortened: (§2)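 Visual ratings on a 0–100 scale (100 = complete control) were made versus untreated controls 13–15 days after treatment in a greenhouse. Compounds in surfactant-containing non-phytotoxic solvent were applied preemergence to seeds in loam–sand blend or postemergence to 1- to 4-leaf plants (2–18 cm).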

[5] = tested on: galium (catchweed bedstraw, Galium aparine); test: Test B pre-/postemergence plant response; conditions: Preemergence
Procedure, shortened: as §2

[6] = tested on: nightshade (eastern black nightshade, Solanum ptycanthum); test: Test B pre-/postemergence plant response; conditions: Preemergence
Procedure, shortened: as §2

wild oat (Avena fatua) = test: Test B pre-/postemergence plant response; conditions: for pest or weed control at 31 g/ha: 31 g ai/ha; for pest or weed control at 125 g/ha: 125 g ai/ha
Procedure, shortened: as §2

[7] = tested on: pigweed (Amaranthus retroflexus); test: Test B pre-/postemergence plant response; conditions: for pest or weed control at 31 g/ha: 31 g ai/ha; for pest or weed control at 125 g/ha: 125 g ai/ha
Procedure, shortened: as §2

[8] = tested on: sunflower (common oilseed sunflower, Helianthus annuus); test: Test B pre-/postemergence plant response; conditions: Preemergence
Procedure, shortened: as §2

[9] = tested on: windgrass (Apera spica-venti); test: Test B postemergence plant response
Procedure, shortened: (§3)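 Plants grown in peat/vermiculite medium were sprayed postemergence at 2–18 cm height (1- to 4-leaf stage). After 13–15 days in the greenhouse, response was rated visually against untreated controls on a 0–100 scale (0 no effect, 100 complete control).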

[10] = tested on: canarygrass (Phalaris minor); test: Test B postemergence plant response
Procedure, shortened: as §3

[11] = tested on: winter barley (Hordeum vulgare); test: Test B postemergence plant response
Procedure, shortened: as §3

[12] = tested on: chickweed (Stellaria media); test: Test B postemergence plant response
Procedure, shortened: as §3

[13] = Flood, 31 g ai/ha, scale 0 to 100 (0 no effect, 100 complete control)
[14] = 31 g ai/ha, scale 0 to 100 (0 no effect, 100 complete control)
[15] = 62 g ai/ha, scale 0 to 100, 0 no effect, 100 complete control
[16] = 125 g ai/ha, scale 0 to 100, 0 no effect, 100 complete control
[17] = 62 g ai/ha, postemergence, 0 is no effect, 100 is complete control, 13 to 15 days
[18] = Preemergence, 250 g ai/ha, 0 to 100 scale

COCCCn1c(-c2ccccc2)ncc(C(=O)C2=C(O)CCCC2=O)c1=O [Compound 81, 5-[(2-hydroxy-6-oxo-cyclohexen-1-yl)carbonyl]-3-(3-methoxypropyl)-2-phenyl-4(3H)-pyrimidinone]
Rice plant response rating (rice (Oryza sativa); [13]): 0
plant injury at 250 g/ha (rice (Oryza sativa); Oryza sativa, 250 g ai/ha, flooded paddy test, visual rating on 0 to 100 scale (0 no effect, 100 complete control) after 13 to 15 days, read-out: Plant response rating, Flood, Rice): 15%
plant injury at 62 g/ha (rice (Oryza sativa); Oryza sativa, Flood (flooded paddy test), 62 g ai/ha, scale of 0 to 100 where 0 is no effect and 100 is complete control, 13 to 15 days, read-out: Plant response rating, Rice): 0%
plant injury at 125 g/ha (rice (Oryza sativa); Oryza sativa, Flood (flooded paddy test), 125 g ai/ha, scale 0 to 100, 0 is no effect, 100 is complete control, 13 to 15 days, read-out: Plant response rating, Rice): 15%
pest or weed control at 250 g/ha ([1]; Echinochloa crus-galli, 360 h, 250 g ai/ha, flooded paddy test, visual rating on 0 to 100 scale (0 no effect, 100 complete control) after 13 to 15 days, read-out: Plant response rating, Flood, Barnyardgrass): 60%
pest or weed control at 62 g/ha ([1]; Echinochloa crus-galli, 360 h, Flood (flooded paddy test), 62 g ai/ha, scale of 0 to 100 where 0 is no effect and 100 is complete control, 13 to 15 days, read-out: Plant response rating, Barnyardgrass): 0%
pest or weed control at 125 g/ha ([1]; Echinochloa crus-galli, 360 h, Flood (flooded paddy test), 125 g ai/ha, scale 0 to 100, 0 is no effect, 100 is complete control, 13 to 15 days, read-out: Plant response rating, Barnyardgrass): 40%
Barnyardgrass plant response rating [1, 13]: 0
pest or weed control at 250 g/ha ([2]; Cyperus difformis, 360 h, 250 g ai/ha, flooded paddy test, visual rating on 0 to 100 scale (0 no effect, 100 complete control) after 13 to 15 days, read-out: Plant response rating, Flood, Sedge, Umbrella): 40%
pest or weed control at 62 g/ha ([2]; Cyperus difformis, 360 h, Flood (flooded paddy test), 62 g ai/ha, scale of 0 to 100 where 0 is no effect and 100 is complete control, 13 to 15 days, read-out: Plant response rating, Sedge, Umbrella): 0%
pest or weed control at 125 g/ha ([2]; Cyperus difformis, 360 h, Flood (flooded paddy test), 125 g ai/ha, scale 0 to 100, 0 is no effect, 100 is complete control, 13 to 15 days, read-out: Plant response rating, Sedge, Umbrella): 30%
Sedge, Umbrella plant response rating [2, 13]: 0
Ducksalad plant response rating [3, 13]: 0
pest or weed control at 250 g/ha ([3]; Heteranthera limosa, 360 h, 250 g ai/ha, flooded paddy test, visual rating on 0 to 100 scale (0 no effect, 100 complete control) after 13 to 15 days, read-out: Plant response rating, Flood, Ducksalad): 40%
pest or weed control at 62 g/ha ([3]; Heteranthera limosa, 360 h, Flood (flooded paddy test), 62 g ai/ha, scale of 0 to 100 where 0 is no effect and 100 is complete control, 13 to 15 days, read-out: Plant response rating, Ducksalad): 0%
pest or weed control at 125 g/ha ([3]; Heteranthera limosa, 360 h, Flood (flooded paddy test), 125 g ai/ha, scale 0 to 100, 0 is no effect, 100 is complete control, 13 to 15 days, read-out: Plant response rating, Ducksalad): 15%
Plant response rating, Russian Thistle [4, 14]: 100
Plant response rating, Russian Thistle [4, 15]: 100
Plant response rating, Russian Thistle [4, 16]: 100
Russian Thistle plant response rating ([4]; 250 g ai/ha, 0 to 100 scale): 100
Plant response rating, Galium [5, 14]: 85
Plant response rating, Galium [5, 15]: 100
Plant response rating, Galium [5, 16]: 100
Galium plant response rating ([5]; 250 g ai/ha, 0 to 100 scale): 100
Plant response rating, Nightshade [6, 14]: 98
Plant response rating, Nightshade [6, 15]: 98
Plant response rating, Nightshade [6, 16]: 98
Nightshade plant response rating ([6]; 250 g ai/ha, 0 to 100 scale): 100
Oat, Wild plant response rating (0 to 100 scale) (wild oat (Avena fatua); [17]): 35
pest or weed control at 31 g/ha (wild oat (Avena fatua); Avena fatua, post-emergence, postemergence, scale 0 to 100, 0 is no effect, 100 is complete control, read-out: Plant response rating, Oat, Wild): 25%
pest or weed control at 125 g/ha (wild oat (Avena fatua); Avena fatua, post-emergence, Postemergence, visual rating after 13 to 15 days, scale 0 (no effect) to 100 (complete control)): 50%
pest or weed control at 250 g/ha (wild oat (Avena fatua); Avena fatua, post-emergence, Postemergence, 250 g ai/ha, scale 0 to 100 (0 no effect, 100 complete control), read-out: Plant response rating, Oat, Wild): 55%
pest or weed control at 31 g/ha (wild oat (Avena fatua); Avena fatua, pre-emergence, Preemergence, scale 0 to 100 (0 no effect, 100 complete control), read-out: Plant response rating, Oat, Wild): 0%
pest or weed control at 62 g/ha (wild oat (Avena fatua); Avena fatua, pre-emergence, Preemergence, 62 g ai/ha, scale 0 to 100 (0 no effect, 100 complete control), read-out: Plant response rating, Oat, Wild): 0%
pest or weed control at 125 g/ha (wild oat (Avena fatua); Avena fatua, pre-emergence, Preemergence, scale 0 to 100, 0 no effect, 100 complete control, read-out: Plant response rating, Oat, Wild): 0%
Oat, Wild plant response rating (wild oat (Avena fatua); [18]): 0
Pigweed plant response rating (0 to 100 scale) [7, 17]: 100
pest or weed control at 31 g/ha ([7]; Amaranthus retroflexus, post-emergence, postemergence, scale 0 to 100, 0 is no effect, 100 is complete control, read-out: Plant response rating, Pigweed): 98%
pest or weed control at 125 g/ha ([7]; Amaranthus retroflexus, post-emergence, Postemergence, visual rating after 13 to 15 days, scale 0 (no effect) to 100 (complete control)): 100%
pest or weed control at 250 g/ha ([7]; Amaranthus retroflexus, post-emergence, Postemergence, 250 g ai/ha, scale 0 to 100 (0 no effect, 100 complete control), read-out: Plant response rating, Pigweed): 100%
pest or weed control at 31 g/ha ([7]; Amaranthus retroflexus, pre-emergence, Preemergence, scale 0 to 100 (0 no effect, 100 complete control), read-out: Plant response rating, Pigweed): 100%
pest or weed control at 62 g/ha ([7]; Amaranthus retroflexus, pre-emergence, Preemergence, 62 g ai/ha, scale 0 to 100 (0 no effect, 100 complete control), read-out: Plant response rating, Pigweed): 100%
pest or weed control at 125 g/ha ([7]; Amaranthus retroflexus, pre-emergence, Preemergence, scale 0 to 100, 0 no effect, 100 complete control, read-out: Plant response rating, Pigweed): 100%
Pigweed plant response rating [7, 18]: 100
Plant response rating, Sunflower [8, 14]: 60
Plant response rating, Sunflower [8, 15]: 75
Plant response rating, Sunflower [8, 16]: 85
Sunflower plant response rating ([8]; 250 g ai/ha, 0 to 100 scale): 90
Windgrass plant response rating (0 to 100 scale) [9, 17]: 50
pest or weed control at 31 g/ha ([9]; Apera spica-venti, post-emergence, 360 h, 31 g ai/ha, postemergence, scale 0 to 100, 0 is no effect, 100 is complete control, read-out: Plant response rating, Windgrass): 10%
pest or weed control at 125 g/ha ([9]; Apera spica-venti, post-emergence, 360 h, Postemergence, 125 g ai/ha, visual rating after 13 to 15 days, scale 0 (no effect) to 100 (complete control)): 60%
pest or weed control at 250 g/ha ([9]; Apera spica-venti, post-emergence, 360 h, Postemergence, 250 g ai/ha, scale 0 to 100 (0 no effect, 100 complete control), read-out: Plant response rating, Windgrass): 70%
Canarygrass plant response rating (0 to 100 scale) [10, 17]: 5
pest or weed control at 31 g/ha ([10]; Phalaris minor, post-emergence, 360 h, 31 g ai/ha, postemergence, scale 0 to 100, 0 is no effect, 100 is complete control, read-out: Plant response rating, Canarygrass): 0%
pest or weed control at 125 g/ha ([10]; Phalaris minor, post-emergence, 360 h, Postemergence, 125 g ai/ha, visual rating after 13 to 15 days, scale 0 (no effect) to 100 (complete control)): 10%
pest or weed control at 250 g/ha ([10]; Phalaris minor, post-emergence, 360 h, Postemergence, 250 g ai/ha, scale 0 to 100 (0 no effect, 100 complete control), read-out: Plant response rating, Canarygrass): 20%
Barley plant response rating (0 to 100 scale) [11, 17]: 0
plant injury at 31 g/ha ([11]; Hordeum vulgare, post-emergence, 31 g ai/ha, postemergence, scale 0 to 100, 0 is no effect, 100 is complete control, read-out: Plant response rating, Barley): 0%
plant injury at 125 g/ha ([11]; Hordeum vulgare, post-emergence, Postemergence, 125 g ai/ha, visual rating after 13 to 15 days, scale 0 (no effect) to 100 (complete control)): 0%
plant injury at 250 g/ha ([11]; Hordeum vulgare, post-emergence, Postemergence, 250 g ai/ha, scale 0 to 100 (0 no effect, 100 complete control), read-out: Plant response rating, Barley): 5%
Chickweed plant response rating (0 to 100 scale) [12, 17]: 98
pest or weed control at 31 g/ha ([12]; Stellaria media, post-emergence, 360 h, 31 g ai/ha, postemergence, scale 0 to 100, 0 is no effect, 100 is complete control, read-out: Plant response rating, Chickweed): 95%
pest or weed control at 125 g/ha ([12]; Stellaria media, post-emergence, 360 h, Postemergence, 125 g ai/ha, visual rating after 13 to 15 days, scale 0 (no effect) to 100 (complete control)): 98%
pest or weed control at 250 g/ha ([12]; Stellaria media, post-emergence, 360 h, Postemergence, 250 g ai/ha, scale 0 to 100 (0 no effect, 100 complete control), read-out: Plant response rating, Chickweed): 100%
